Data published in patent US20110082074A1, “AGENT FOR PREVENTING PERIODONTAL DISEASE” (priority 2009, published 2011).
“Also recorded” adds a separate entry of the source.

Tests used:
[1] = test system: binding between gingival cells and FimA II; assay: Effect of monosaccharide on binding inhibitory effect: labeled test cells bound to immobilized FimA II-His; assay type: cell-based, Porphyromonas gingivalis; details: monosaccharide final concentration 50 μg/ml with 10 μl RGD peptide−SBA beads; FIG. 6
Protocol: FimA II-His (10 μg/ml) was immobilized onto a 96-well plate, and test cells that had been fluorescently labeled with CellTracker Green CMFDA (Invitrogen) were bound thereto in an amount of 1×10^6 cells.
SBA beads, RGD peptide, or RGD peptide−SBA beads were allowed to coexist in the wells in an amount of 10 μl, and the plate was shaken. In addition to the RGD peptide−SBA beads, glucose or N-acetylgalactosamine (GalNAc) was allowed to coexist therewith in a final concentration of 50 μg/ml. For comparison, wells of a 96-well plate in which no beads were present and only N-acetylgalactosamine was present in a final concentration of 50 μg/ml were also prepared.
(§1) The 96-well plate was filled with PBS. After unbound cells were removed, bound cells were detected using a fluorescent plate reader.

[2] = molecular target: T1, binding of type II FimA protein to α5β1 integrin expression cells (Homo sapiens, UniProt P05556+P08648); assay: Binding Inhibitory Experiment 2: fluorescently labeled test cells bound to immobilized FimA II-His; assay type: cell-based, Porphyromonas gingivalis; details: 50 μl beads, compared to fibronectin or RGD peptide alone, FIG. 3
T1 construct: expressed in transfected cells; host or cells: CHO (CHO-VLA5)
T1 sequence (P08648 42-894 limits assumed): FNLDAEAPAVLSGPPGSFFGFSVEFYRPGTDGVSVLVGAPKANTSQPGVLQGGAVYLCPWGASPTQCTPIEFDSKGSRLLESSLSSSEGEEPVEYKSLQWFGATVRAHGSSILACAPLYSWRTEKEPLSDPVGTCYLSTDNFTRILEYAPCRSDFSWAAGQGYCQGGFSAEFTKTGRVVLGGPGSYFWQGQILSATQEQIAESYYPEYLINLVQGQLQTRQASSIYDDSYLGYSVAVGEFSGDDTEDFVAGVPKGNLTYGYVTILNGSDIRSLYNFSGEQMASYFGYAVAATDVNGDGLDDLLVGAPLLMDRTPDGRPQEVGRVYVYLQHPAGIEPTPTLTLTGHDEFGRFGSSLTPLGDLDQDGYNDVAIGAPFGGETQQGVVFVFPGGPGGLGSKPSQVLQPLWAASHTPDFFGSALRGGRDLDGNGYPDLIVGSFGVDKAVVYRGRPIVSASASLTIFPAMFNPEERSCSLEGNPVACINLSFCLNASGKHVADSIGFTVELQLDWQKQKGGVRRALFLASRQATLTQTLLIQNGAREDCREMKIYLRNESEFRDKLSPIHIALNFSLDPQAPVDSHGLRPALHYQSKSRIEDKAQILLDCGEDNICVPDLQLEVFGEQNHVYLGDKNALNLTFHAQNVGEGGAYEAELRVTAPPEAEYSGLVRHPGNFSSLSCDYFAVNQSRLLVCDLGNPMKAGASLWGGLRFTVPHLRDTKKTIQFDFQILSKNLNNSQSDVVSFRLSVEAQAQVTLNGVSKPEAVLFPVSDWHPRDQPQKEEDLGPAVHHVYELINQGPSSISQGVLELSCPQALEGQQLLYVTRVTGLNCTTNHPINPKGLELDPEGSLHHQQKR
T1 sequence (P08648 895-1049 limits assumed): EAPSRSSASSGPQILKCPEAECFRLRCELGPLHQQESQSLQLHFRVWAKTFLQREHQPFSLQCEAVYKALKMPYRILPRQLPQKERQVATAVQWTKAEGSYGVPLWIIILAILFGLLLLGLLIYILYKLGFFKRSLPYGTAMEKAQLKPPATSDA
T1 sequence (P05556 21-798): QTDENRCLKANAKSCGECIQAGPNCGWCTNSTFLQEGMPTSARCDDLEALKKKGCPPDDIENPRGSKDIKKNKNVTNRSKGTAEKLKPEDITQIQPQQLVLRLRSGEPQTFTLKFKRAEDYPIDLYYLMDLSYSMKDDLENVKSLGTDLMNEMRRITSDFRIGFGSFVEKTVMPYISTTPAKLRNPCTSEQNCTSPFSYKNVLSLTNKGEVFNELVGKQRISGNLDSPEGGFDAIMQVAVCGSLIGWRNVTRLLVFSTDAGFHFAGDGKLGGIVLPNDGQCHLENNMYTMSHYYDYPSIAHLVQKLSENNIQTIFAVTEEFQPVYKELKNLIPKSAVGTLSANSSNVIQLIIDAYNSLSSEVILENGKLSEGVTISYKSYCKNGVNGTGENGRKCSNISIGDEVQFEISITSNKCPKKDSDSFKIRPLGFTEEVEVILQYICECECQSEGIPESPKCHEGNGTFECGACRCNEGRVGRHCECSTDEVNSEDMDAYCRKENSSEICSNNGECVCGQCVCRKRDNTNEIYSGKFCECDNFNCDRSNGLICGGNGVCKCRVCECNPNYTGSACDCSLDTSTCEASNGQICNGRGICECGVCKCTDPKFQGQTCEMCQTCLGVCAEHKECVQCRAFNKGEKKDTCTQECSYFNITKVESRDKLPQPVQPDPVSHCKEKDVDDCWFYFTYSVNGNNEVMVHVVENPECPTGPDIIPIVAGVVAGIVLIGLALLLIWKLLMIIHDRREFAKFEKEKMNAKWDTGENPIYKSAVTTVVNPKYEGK
Protocol: (§2) CHO cells on which α5β1 integrin was forcedly expressed by introducing a gene encoding α5β1 integrin (hereinafter sometimes referred to as “CHO-VLA5”), and gingival cells were used in the Binding Inhibitory Experiments described below. As the gingival cells, three types of cells, GE1, Ca9-22 and Sa3, were used. As a control, CHO cells into which α5β1 integrin was not introduced were used. GE1, Ca9-22, and Sa3 were obtained from ATCC (American Type Culture Collection).
FimA II-His (10 μg/(ml)) was immobilized onto a 96-well plate, and test cells that had been fluorescently labeled with CellTracker Green CMFDA (available from Invitrogen) were added in an amount of 1×10^6 cells and allowed to bind.
50 μl of SBA beads, RGD peptide−SBA beads, or fibronectin−SBA beads were allowed to coexist in each well, and the plate was shaken. For comparison, an experiment in which an RGD peptide or fibronectin was allowed to coexist was performed in a similar manner.
Each well of the 96-well plates was filled with serum-free Dulbecco's modified Eagle's medium (hereinafter referred to as DMEM) or with PBS, and covered with a Parafilm to prevent air from entering. The plate was turned upside-down and allowed to stand for 5 minutes. After removing the Parafilm, a supernatant containing unbound cells was removed, and bound cells were detected using a fluorescent plate reader.

[3] = test system: P. gingivalis carrying type II FimA fimbrial protein; assay: Binding Inhibitory Experiment 3: fluorescently labeled P. gingivalis bound to seeded test cells; assay type: cell-based, Porphyromonas gingivalis; details: 30 μl beads, 10 μl P. gingivalis, room temperature 10 minutes; FIG. 4
Protocol: Test cells were seeded into a 96-well plate in an amount of 5×10^5 cells. The next day, 10 μl of P. gingivalis carrying FimA type II fimbrial protein was allowed to bind, and 30 μl each of SBA beads, RGD peptide−SBA beads, and fibronectin−SBA beads were added. The plate was shaken at room temperature for 10 minutes.
The 96-well plate was gently washed. Fluorescently labeled P. gingivalis carrying type II FimA fimbrial protein bound to the cells was detected using a fluorescence detector. P. gingivalis was fluorescently labeled by using an FITC Labeling Kit (manufactured by Kirkegaard & Perry Laboratories, Inc.) after P. gingivalis was immobilized with formalin.

[4] = molecular target: T2, α5β1 integrin expressing cells (Homo sapiens, UniProt P05556+P08648); assay: Binding ratio of RGD peptide or fibronectin to SBA beads, FimA II-His binding inhibitory experiment; assay type: cell-based; details: RGD peptide bound in an amount of 10 to 30 μg per 100 μg of SBA beads
T2 construct: expressed in transfected cells; host or cells: CHO (CHO-VLA5)
T2 sequence (P08648 42-894 limits assumed): as the sequence (P08648 42-894 limits assumed) above
T2 sequence (P08648 895-1049 limits assumed): as the sequence (P08648 895-1049 limits assumed) above
T2 sequence (P05556 21-798): as the sequence (P05556 21-798) above
Protocol: Another experiment was performed using α5β1 integrin expressing cells in a manner similar to the FimA II-His tag protein binding inhibitory experiment described above, to investigate the binding ratio of RGD peptide or fibronectin to SBA beads.

[5] = test system: TNFRI (TNF-α Receptor Type I); assay: TNFRI phosphorylation by western blotting in test cells treated with P. gingivalis; assay type: cell-based; details: test cells with P. gingivalis carrying type II FimA fimbrial protein (10 μl), 30 μl beads, FIG. 8
Protocol: Test cells were seeded into a 96-well plate in an amount of 5×10^5 cells. The next day, each well was washed with DMEM, and then P. gingivalis carrying type II FimA fimbrial protein (10 μl) was added as a reagent. The numerical value in the parentheses indicates the final concentration in the medium containing the reagent.
SBA beads, RGD peptide−SBA beads, or fibronectin−SBA beads were allowed to coexist therewith in an amount of 30 μl, and the plate was shaken. After each plate was washed well with PBS, cells were dissolved in 1% NP-40, and subjected to western blotting using an anti-TNFRI antibody, anti-tyrosine phosphorylation antibody, and anti-actin antibody.

[6] = molecular target: T3, binding of FimA type II fimbrial protein to α5β1 integrin expression cells (Homo sapiens, UniProt P05556+P08648); assay: Binding Inhibitory Experiment 1: FimA II-His bound to seeded test cells, detected by ELISA; assay type: cell-based, Porphyromonas gingivalis; details: cells immobilized; 10 μl beads; about 30 μM RGD peptide or fibronectin, about 100 μM SBA; compared to fibronectin or RGD peptide alone; FIG. 2
T3 construct: expressed in transfected cells; host or cells: CHO (CHO-VLA5)
T3 sequence (P08648 42-894 limits assumed): as the sequence (P08648 42-894 limits assumed) above
T3 sequence (P08648 895-1049 limits assumed): as the sequence (P08648 895-1049 limits assumed) above
T3 sequence (P05556 21-798): as the sequence (P05556 21-798) above
Protocol: as §2
Test cells were seeded into a 96-well plate in an amount of 5×10^5 cells. Subsequently, 50 μl of FimA II-His (10 μg/ml) was allowed to bind to the cells, and 10 μl of SBA beads, RGD peptide−SBA beads, or fibronectin−SBA beads were allowed to coexist. The plate was shaken at room temperature for 10 minutes. For comparison, an experiment in which an RGD peptide or fibronectin was allowed to coexist was performed in a similar manner. […]
After the 96-well plate was gently washed, FimA II-His bound to the cells was detected by ELISA using an anti-His tag antibody (Cat. No. 71554-3; available from Novagen).
The fibronectin−SBA bead solution contained about 30 μM of fibronectin and about 100 μM of SBA, whereas the solution containing only fibronectin contained about 30 μM of fibronectin. These values were calculated by measuring the amount of each protein not bound to the beads during the production. […]

TGF-β = assay: Confirmation of cytokine production: TGF-β produced by Ca9-22 cells; assay type: cell-based; details: 30 μl beads, FIG. 7
Protocol: Ca9-22 cells were seeded into a 96-well plate in an amount of 5×10^5 cells. The next day, (1) a lipopolysaccharide (hereinafter also referred to as “LPS”; 10 ng/ml), (2) TNF-α(10 ng/ml), (3) P. gingivalis carrying FimA type II fimbrial protein (5 μl), or (4) FimA II-GST (10 μg/ml) was added as a reagent. The parenthesized numerals in the above sentence indicate the final concentrations in the media containing the reagents to 50 μl of the medium.
SBA beads, RGD peptide−SBA beads, or fibronectin−SBA beads were allowed to coexist therewith in an amount of 30 μl, and the plate was rocked. The amount of TGF-β produced was then measured.

[7] = test system: interaction between gingival cells and FimA II; assay: Comparison with other lectins: labeled test cells bound to immobilized FimA II-His; assay type: cell-based, Porphyromonas gingivalis; details: 10 μL beads; SBA compared to WGA (wheat germ lectin); FIG. 5
Protocol: FimA II-His (10 μg/ml) was immobilized onto a 96-well plate, and test cells that had been fluorescently labeled with CellTracker Green CMFDA (manufactured by Invitrogen) were bound in an amount of 1×10^6 cells.
Subsequently, 10 μL of SBA beads, RGD peptides, RGD peptide−SBA beads, WGA beads, or RGD peptide-WGA beads were allowed to coexist, and the plate was shaken.
The WGA beads are beads prepared in the same manner as in the production of SBA beads described above in Item 1, except for using WGA in place of SBA. The RGD peptide-WGA beads are beads prepared in the same manner as in the production of RGD peptide−SBA beads described above in Item 2, except for using WGA in place of SBA.
as §1

[8] = Ca9-22 cells treated with LPS 10 ng/ml
[9] = Ca9-22 cells treated with TNF-α 10 ng/ml
[10] = Ca9-22 cells with FimA II-GST 10 μg/ml
[11] = Ca9-22 cells with P. gingivalis carrying FimA type II fimbrial protein (5 μl)

Row | Compound | effect of coexisting monosaccharide on the RGD peptide−SBA binding inhibitory effect [1] | inhibition of binding of type II FimA protein to α5β1 integrin expression cells [2] | inhibition of binding of P. gingivalis carrying type II FimA fimbrial protein to gingival cells [3] | binding inhibition depending on binding ratio of RGD peptide to SBA beads [4] | phosphorylated tyrosine of the activation receptor (TNFRI) [5] | inhibition of binding of FimA type II fimbrial protein to α5β1 integrin expression cells [6] | production of TGF-β (TGF-β; [8]) | production of TGF-β (TGF-β; [9]) | production of TGF-β (TGF-β; [10]) | production of TGF-β (TGF-β; [11]) | inhibition of the interaction between gingival cells and FimA II [7]
1 | CC(=O)N[C@H]1C(O)O[C@H](CO)[C@H](O)[C@@H]1O (stereo partly shown) [N-acetylgalactosamine] | did so |  |  |  |  |  |  |  |  |  | 
2 | RGD peptide−SBA beads: beads in which SBA beads and RGD-peptide (SEQ ID NO: 3, RGDSPASSKP) are bound |  | significantly inhibited; also recorded: higher than that of fibronectin−SBA beads | inhibited; also recorded: remarkably high binding inhibitory effect | inhibited binding most effectively | not detected | significantly inhibited | production of TGF-β was observed | production of TGF-β was observed | production of TGF-β was inhibited | production of TGF-β was inhibited | 
3 | SBA beads: conjugate of soybean lectin and NHS-activated Sepharose beads |  |  | slightly inhibited binding |  |  |  | production of TGF-β was observed | production of TGF-β was observed | production of TGF-β was detected | production of TGF-β was detected | 
4 | SBA: soybean lectin (soybean agglutinin), mucin-type sugar chain-binding lectin; tested bound to beads |  |  |  |  |  |  |  |  |  |  | more potently inhibits
